Measurements from PMC11796312, “Multifunctional, Fluorene‐Based Modulator of Cholinergic and GABAergic Neurotransmission as a Novel Drug Candidate for Palliative Treatment of Alzheimer's Disease” (Angewandte Chemie (International Ed. in English), 2024).
“And” between values parts separate entries of the source, which are not always exact repeats. Identical values can stand only once. “Also recorded” adds a separate entry of the source. Like-named read-outs stand apart in the source and are kept apart here.

Key:
[1] = tested on: mice treated with scopolamine; assay: Passive avoidance (PA) task, scopolamine-induced amnesia; assay type: in vivo; conditions: 10 mg/kg i.p., vs scopolamine-treated group
Protocol: Animals and housing conditions
In all pharmacodynamic in vivo experiments, except for the Barnes maze (BM) task, adult male Albino Swiss (CD-1) mice weighing between 18 and 22 g and purchased from the Animal Breeding Farm of the Faculty of Pharmacy, Jagiellonian University Medical College were used. In BM task, C57BL/6J mice of the same weight (Animalab, Poland) were used.
Animals were housed in cages (10 mice per cage) at a constant temperature of 22 ± 2 °C, humidity of 55 ± 10%, and a light/dark (12:12) cycle (lights on at 7 AM). Before the experiments, the animals had unlimited access to food and water. Specified conditions for the maintenance of mice were ensured throughout the experiments, including tree bedding (Transwior, Poland) and cage enrichment (tunnels, nesting material, wooden igloos, etc.). […]
doses for behavioral assays. Lower doses were also assessed if at least one of them was […]
On the first day, during the acquisition trial (a conditioning phase), the test compound 6, scopolamine, and vehicle were injected. […] The latency between opening the guillotine gate and the mouse entering the black compartment was measured for each mouse. On the next day, during the retention (drug-off) trial, the mice were placed again into the white compartment for a 30-s habituation period, and the latency to enter the black compartment was measured for each mouse. […]

[2] = Pharmacokinetic study after i.p. administration; assay type: in vivo; conditions: mice, 10 mg/kg i.p.
Protocol: Pharmacokinetic study after i.p. and i.g administration
mg/kg), blood samples were collected from mice under deep terminal anesthesia directly by cardiac puncture into heparinized 1.5 mL tubes at selected time intervals.
The samples were centrifuged at 3,000 × g for 10 min (10 °C), and the plasma samples were stored at -80 °C until the HPLC analysis.
The blood in brain vessels would interfere with the assay of actual brain tissue concentrations.
Therefore, the animals were perfused transcardially with saline solution (0.9% NaCl) for 5 min (10 mL/min). After perfusion, the skull was opened, and the brain was carefully removed and immediately stored at -80 °C until the HPLC analysis.
UHPLC-MS method for pharmacokinetics study
Ultra high-performance liquid chromatography system consisting of Ultimate 3000 RS pump Dionex (Thermo Scientific, San Jose, CA, USA) coupled with high-resolution mass spectrometer with orbitrap analyzer (Q Exactive Focus, Thermo Scientific, San Jose, CA, USA) was used in quantitative analyses of 6 in plasma and brain homogenate. According to the EMA[43] and FDA[42] guidelines on Bioanalytical method validation, the method was fully validated for plasma and partially for brain homogenate.
Before analysis, 50 μL of plasma or brain homogenate was precipitated with an internal
standard of 200 μL acetonitrile (ACN). The mixture was vortexed for 1 min at 1,500 rpm and
centrifuged at 12,074 g for 5 min at 20 °C. The supernatant was then transferred to an
injection vial and analyzed.
mm ID (Phenomenex, Torrance, CA, USA), protected with a guard column SecurityGuard
was performed in gradient elution mode with a flow rate of 0.6 mL/min and the following
composition of mobile phase: A) 0.1% FA in water (v/v) and B) 0.1% FA in ACN/MeOH in
The column was kept at 45 °C during
analysis. Samples were held at 10 °C in a light-tight autosampler unit.
Heated-Electrospray Ionization II interface (HESI-II) in positive ion mode was used with the
following settings: spray voltage; +3.5 kV, S-lens RF level; +70 V, capillary temperature 350
°C, auxiliary gas heater temperature; 350 °C, sheet, and auxiliary gas flow; 45 and 15
arbitrary units, respectively. Full MS mode was used at resolution (m/𝛥m) ̴70,000 for
Xcalibur software (v 4.0) was used for data evaluation.

[3] = Cell viability, PrestoBlue (immunotoxicity); assay type: cell-based; conditions: mouse, 24 h, read-out: viability, immuntoxicity X [%]
Protocol: (§1) The mouse microglial cells (BV-2) were cultured using standard procedures. The cells were a generous gift from professor Bozena Kaminska-Kaczmarek from Laboratory of Molecular Neurobiology, Neurobiology Center, Nencki Institute of Experimental Biology, Polish Academy of Sciences, Warsaw, Poland. The cells were cultured in Dulbecco’s Modified Eagle’s Medium - high glucose, (DMEM, Glutamx ThermoFisher ) supplemented with 10% fetal bovine serum heat inactivated (ThermoFisher), with added 100 IU/ml penicillin (Sigma Aldrich) and 100 µg/ml streptomycin (Sigma Aldrich). […]
(§2) an area of 175 cm2 (Nunc), and incubated at 37◦C, 5% CO2. For the test of compounds with the BV-2 cells line, microglia cells were seeded on 96-well culture plate (Falcon) at a density of 2x10^4 cells per well in fresh medium. The cells were grown for 24 hours in the incubator (37°C, 5% CO2) before performing experiments. […]
(§3) Preparation of stock solutions of tested compounds
(§4) Stock solutions were prepared in the concentration of 10 mM for test and reference compounds. Minimum 1 mg of each tested compound was weighed and dissolved in appropriate volume of dimethyl sulfoxide. Serial dilutions were prepared in DMSO and then the diluted compounds were transferred to PBS. Before assays eventual precipitation or opalescence was checked. All experiments were performed in duplicates, in three independent experiments. Cell viability was measured after 24 hours of incubation with tested cell line.
(§5) Cell viability was evaluated using the Presto Blue reagent (Thermo Fisher), according to the manufacturer procedures. Following 24 hours of incubation with the tested molecule, PrestoBlue reagent was added to a microplate well in an amount equal to one tenth of the remaining medium volume. The resulting mixture was incubated for 15 minutes at 37°C, and the fluorescence intensity (EX 530; EM 580 nm) was measured in the plate reader POLARstar Omega, (BMG Labtech). The results (viability values) are provided as a percentage of live cells with respect to DMSO (control sample).
(§6) Viability values were calculated as a percentage of live cells with respect to the control sample (DMSO). The negative control was medium without cells. IC 50 was determined by […]
(§7) nonlinear regression analysis using GraphPad Prism 9.0 software. All values are expressed as […]
(§8) Table S10. The viability of cells. neurotoxicity immuntoxicity
(§9) The results (viability values) are provided as a percentage of live cells with respect to DMSO (control sample)
(§10) Table S11. The viability of cells.

[4] = tested on: mouse microglial cells (BV-2); assay: Cell viability, PrestoBlue (immunotoxicity); assay type: cell-based; conditions: Mus musculus, BV-2, 24 h
Protocol: as §1, §2, §3, §4, §5, §6, §7, §8, §9, §10

For O[C@H](CNCC1CC1)[C@H](Cc1ccccc1)NC1c2ccccc2-c2ccccc21 [Compound 6], the “step-through latency in the retention trial” value [1] was “significant differences were observed in the retention trial; also recorded: prolonged step‐thorough latency”, the Tmax ([2]; ICR-CD1, mouse, brain, ip, 10 mg/kg, read-out: brain Tmax (converted)) was 0.917 h and the Kp ([2]; ICR-CD1, mouse, brain/plasma, ip, 10 mg/kg, read-out: Kp (AUCbrain/AUCplasma), brain-to-plasma ratio) was 11.1. The MRT ([2]; ICR-CD1, mouse, ip, plasma) was 3.62 h, the k el ([2]; ICR-CD1, mouse, ip, plasma, read-out: λz (converted)) was 7.5e-05 s⁻¹ and the Cmax ([2]; ICR-CD1, mouse, plasma, ip, 10 mg/kg) was 430 ± 57.9 ng/mL. For the same compound, the half-life ([2]; ICR-CD1, mouse, plasma, ip, 10 mg/kg, plasma, read-out: Half-life) was 2.69 ± 0.237 h, the Vd/F ([2]; ICR-CD1, mouse, plasma, ip, 10 mg/kg, plasma, read-out: Vss/F) was 38.2 ± 4.47 L/kg and the Vd/F ([2]; ICR-CD1, mouse, plasma, ip, 10 mg/kg, plasma, read-out: Vz/F) was 40.9 ± 4.95 L/kg. For the same compound, the Tmax ([2]; ICR-CD1, mouse, plasma, ip, 10 mg/kg, read-out: plasma Tmax (converted)) was 0.389 h, the “brain AUCtotal” value [2] was 650,923.00 ± 152,288.00 min.ng/g and the “plasma AUCtotal” value [2] was 58,804.62 ± 3,318.21 min.ng/mL. For the same compound, the CL ([2]; plasma) was 170 ± 10 mL/min/kg, the Vz/F ([2]; plasma, 10 mg/kg) was ~ 41 L/kg and the half-life ([2]; plasma, 10 mg/kg) was ~ 161 min. The “Kp (AUCbrain/AUCplasma), brain-to-plasma ratio” value ([2]; 10 mg/kg) was 11, the “brain Cmax” value ([2]; 10 mg/kg) was 833.00 ± 62.32 ng/g and 833 ng/g and the “plasma Cmax” value ([2]; 10 mg/kg) was 430 ng/mL. It also gave a viability at 24 h, 0.1 µM ([3]; BV-2, 0.1 µM) of 102%, a viability at 24 h, 1 µM ([3]; BV-2, 1 µM) of 103% and a viability at 24 h, 10 µM ([3]; BV-2, 10 µM) of 94.8%. For the same compound, the viability at 24 h, 50 µM ([3]; BV-2, 50 µM) was 2%, the viability at 24 h, 100 µM ([3]; BV-2, 100 µM, vs DMSO) was 1.3% and the IC50 ([4]; read-out: IMMUNOTOXICTY IC50) was 18.9 µM. The IC50 ([4]; read-out: IMMUNOTOXICTY pIC (converted)) was 19.1 µM.
